From patent publication US20230270755A1, “COMBINATION OF MEDICATIONS IN A PARENTERAL DOSAGE FORM FOR LONG-TERM ANAESTHESIA” (PHARMAFINA ILAC SATIS VE PAZARLAMA ANONIM SIRKETI, priority 2020, published 2023)

Assays:
[1] = Ropivacaine pharmacokinetics and duration of effect (literature review); type: in vivo; settings: single dose; additional doses required for longer action
Procedure: Ropivacaine is preferably used as the hydrochloride salt and S-enantiomer thereof for acute pain management and surgical anesthesia. […] Therefore, ropivacaine loses its sensible effect within about 4 hours and additional doses are required for a longer action.

[2] = administered intravenously, cited from earlier work

## CCCN1CCCC[C@H]1C(=O)Nc1c(C)cccc1C [Ropivacaine]
[1]
  time within which sensible effect is lost: ≤ 4 h
[2]
  mean half-life of the initial phase: 14 min
[2]; slower phase
  mean absorption t1/2 of the slower phase: approximately 4.2 hours
